In US12552780B2, “Small molecule compound serving as jak kinase inhibitor, and use thereof” (TECHNODERMA MEDICINES, INC., priority 2020, dated 2026) one finds IC50 data, which are given here for ten compounds.

What all share (assay type): biochemical
For one experiment, the target named is Tyk2 (Homo sapiens, UniProt P29597). Nature of the experiment: Detection of enzyme activity inhibition of JAK kinases (ULight-JAK substrate, Eu-antibody), Tyk2. The following applies: ATP 10 μM, substrate 50 nM, 1 hour reaction at room temperature, read-out: Tyk2 half-maximum inhibitory concentration (IC50). As for the experimental part: (§1) Kinase reaction buffer: The kinase reaction buffer was prepared with the following components: 50 mM HEPES, pH 7.5, 1 mM EGTA, 10 mM MgCl2, 2 mM DTT, and 0.01% Tween20. 1× test buffer: A test buffer was prepared, and the 10× test buffer was diluted with deionized water (deionized water: test buffer=9:1) to obtain the 1× test buffer. 4× kinase solution: JAK kinase was diluted with a kinase reaction buffer to a final concentration of 4× (JAK1:80 nM, JAK2/JAK3/Tyk2:4 nM). 4× substrate solution: ULight™-JAK (Tyr1023) substrate was diluted with the kinase reaction buffer to 200 nM (final concentration: 50 nM). 4× ATP solution: ATP was diluted with the kinase reaction buffer to a final concentration of 4× (JAK1:160 μM, JAK2/JAK3/Tyk2: 40 μM). 4× test compound solution: The compounds to be tested were dissolved in DMSO to prepare 10 mM stock solutions, which were diluted to have the desired concentrations through 3-fold gradient dilution, 10 concentrations were set for each compound, and final concentrations of the test compounds ranged from 10 μM to 0.5 nM. 4× enzyme reaction termination solution: EDTA was dissolved in a 1× test buffer to 40 mM (final concentration of EDTA: 10 mM). 4× test antibody solution: Eu-labeled test antibodies (anti-phosphotyrosine (PT66)) were diluted with 1× test buffer to 8 nM (final concentration of the antibodies: 2 nM). 2.5 μL of the 4× kinase solution and 2.5 μL of each of the 4× test compound solutions having different concentrations were added into a 384-well microwell plate sequentially, with 2 duplicate wells set for each concentration, and an enzyme solution blank control group and a negative control group (DMSO group) were also provided. The 384-well plate was oscillated to mix the enzyme and the compound uniformly, centrifuged at 1000 rpm for 1 minute, and incubated at room temperature for 60 minutes. 2.5 μL of the 4× substrate solution was added into the 384-well plate, and centrifuged at 1000 rpm for 1 minute. 2.5 μL of the 4× ATP solution was added into the 384-well plate, and centrifuged at 1000 rpm for 1 minute to start the enzyme reaction. JAK1 reacted at room temperature for 2 hours, and JAK2/JAK3/Tyk2 reacted at room temperature for 1 hour. The final concentration of each component in the JAK1 reaction was: JAK1:20 nM; substrate: 50 nM; and ATP: 40 μM. The final concentrations of the test compounds ranged from 10 μM to 0.5 nM. The final concentration of each component in the JAK2/JAK3/Tyk2 reaction was: JAK2:1 nM; substrate: 50 nM; and ATP: 10 μM. The final concentrations of the test compounds ranged from 10 μM to 0.5 nM. After the enzyme reaction ended, 5 μL of the 4× enzyme reaction termination solution was added into each well of the 384-well plate, centrifuged at 1000 rpm for 1 minute, and incubated at room temperature for 5 minutes. 5 μL of the 4× test antibody solution (final concentration of the test antibodies was 2 nM) was added into each well of the 384-well plate, centrifuged at 1000 rpm for 1 minute, and incubated at room temperature for 1 hour. After incubation of the antibodies, a signal value of each well was measured with Envision plate reader. Assuming that an inhibition rate of the enzyme solution blank control group was 100% and an inhibition rate of the negative control group (DMSO group) was 0%, an inhibition rate corresponding to each concentration was calculated. Nonlinear regression analysis was performed on the concentration logarithm values and corresponding percentage inhibition rates of the test compounds in GraphPad Prism software to obtain the half-maximum inhibitory concentrations (IC50) of the test compounds.
Sequence of Tyk2 (P29597 whole entry): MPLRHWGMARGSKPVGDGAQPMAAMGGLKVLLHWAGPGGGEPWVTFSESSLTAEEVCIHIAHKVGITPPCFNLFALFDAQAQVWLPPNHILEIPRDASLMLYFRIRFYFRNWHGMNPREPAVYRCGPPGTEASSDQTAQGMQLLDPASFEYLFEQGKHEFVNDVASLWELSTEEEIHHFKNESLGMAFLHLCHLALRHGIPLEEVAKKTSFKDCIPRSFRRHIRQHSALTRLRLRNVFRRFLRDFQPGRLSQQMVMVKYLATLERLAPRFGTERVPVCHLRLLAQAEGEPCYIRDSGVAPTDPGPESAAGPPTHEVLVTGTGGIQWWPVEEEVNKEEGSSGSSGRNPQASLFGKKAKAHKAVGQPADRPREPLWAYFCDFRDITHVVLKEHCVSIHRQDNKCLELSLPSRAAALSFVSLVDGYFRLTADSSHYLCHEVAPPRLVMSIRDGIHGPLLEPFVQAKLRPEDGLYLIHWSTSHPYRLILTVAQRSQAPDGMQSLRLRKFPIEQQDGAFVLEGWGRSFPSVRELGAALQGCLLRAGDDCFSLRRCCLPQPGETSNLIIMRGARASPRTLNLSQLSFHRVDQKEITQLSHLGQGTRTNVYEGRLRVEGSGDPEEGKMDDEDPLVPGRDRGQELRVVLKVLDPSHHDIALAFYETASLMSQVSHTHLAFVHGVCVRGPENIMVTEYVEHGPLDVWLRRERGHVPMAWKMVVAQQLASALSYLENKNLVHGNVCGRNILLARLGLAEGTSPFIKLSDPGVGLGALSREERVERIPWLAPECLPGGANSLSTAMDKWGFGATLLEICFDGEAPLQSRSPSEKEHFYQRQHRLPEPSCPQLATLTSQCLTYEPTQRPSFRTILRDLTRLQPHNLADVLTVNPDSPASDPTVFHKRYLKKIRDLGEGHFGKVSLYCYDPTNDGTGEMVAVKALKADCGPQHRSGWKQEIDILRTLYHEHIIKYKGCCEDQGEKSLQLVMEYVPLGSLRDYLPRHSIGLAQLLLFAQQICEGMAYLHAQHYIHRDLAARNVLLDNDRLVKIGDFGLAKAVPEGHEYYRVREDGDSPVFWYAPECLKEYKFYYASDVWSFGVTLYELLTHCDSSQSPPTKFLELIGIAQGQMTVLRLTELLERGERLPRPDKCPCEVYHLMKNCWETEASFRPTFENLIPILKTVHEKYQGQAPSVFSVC

In a further experiment the target is JAK2 (Homo sapiens, UniProt O60674). Nature of the experiment: Detection of enzyme activity inhibition of JAK kinases (ULight-JAK substrate, Eu-antibody), JAK2. To be noted: JAK2 1 nM, ATP 10 μM, substrate 50 nM, 1 hour reaction at room temperature, read-out: JAK2 half-maximum inhibitory concentration (IC50). The method, then: as §1
Sequence of JAK2 (O60674 whole entry): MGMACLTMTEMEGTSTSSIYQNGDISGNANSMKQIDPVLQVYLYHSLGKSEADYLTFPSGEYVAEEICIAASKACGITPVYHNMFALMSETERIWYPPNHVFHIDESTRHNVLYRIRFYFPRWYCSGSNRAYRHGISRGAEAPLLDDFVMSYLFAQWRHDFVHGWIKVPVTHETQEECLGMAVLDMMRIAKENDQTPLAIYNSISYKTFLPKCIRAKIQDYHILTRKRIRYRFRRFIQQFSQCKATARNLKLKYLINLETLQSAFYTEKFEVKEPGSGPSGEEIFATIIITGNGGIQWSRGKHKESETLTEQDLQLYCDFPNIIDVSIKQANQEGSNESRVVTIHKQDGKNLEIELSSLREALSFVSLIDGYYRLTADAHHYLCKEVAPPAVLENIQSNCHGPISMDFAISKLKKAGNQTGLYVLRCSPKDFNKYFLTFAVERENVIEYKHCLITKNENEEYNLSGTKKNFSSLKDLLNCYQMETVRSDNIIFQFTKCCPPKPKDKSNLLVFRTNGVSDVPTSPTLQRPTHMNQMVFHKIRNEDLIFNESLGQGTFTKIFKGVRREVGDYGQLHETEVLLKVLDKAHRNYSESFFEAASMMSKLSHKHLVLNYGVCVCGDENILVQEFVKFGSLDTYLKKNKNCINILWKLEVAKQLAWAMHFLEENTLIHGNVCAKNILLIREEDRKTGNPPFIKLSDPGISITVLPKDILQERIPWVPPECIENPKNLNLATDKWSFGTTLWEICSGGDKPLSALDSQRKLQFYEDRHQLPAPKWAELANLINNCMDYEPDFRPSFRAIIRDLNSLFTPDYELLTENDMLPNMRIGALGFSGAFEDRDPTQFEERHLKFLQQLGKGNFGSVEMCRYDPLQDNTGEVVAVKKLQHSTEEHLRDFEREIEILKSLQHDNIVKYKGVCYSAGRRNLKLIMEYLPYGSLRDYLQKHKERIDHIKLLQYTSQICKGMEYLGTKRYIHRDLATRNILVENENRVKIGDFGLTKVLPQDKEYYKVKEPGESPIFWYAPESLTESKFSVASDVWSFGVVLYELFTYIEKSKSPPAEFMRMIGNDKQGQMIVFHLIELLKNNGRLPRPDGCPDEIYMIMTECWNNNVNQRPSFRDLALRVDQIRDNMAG
A further experiment deals with T1, JAK3 (Homo sapiens, UniProt P52333).
T1 sequence (P52333 1-1124): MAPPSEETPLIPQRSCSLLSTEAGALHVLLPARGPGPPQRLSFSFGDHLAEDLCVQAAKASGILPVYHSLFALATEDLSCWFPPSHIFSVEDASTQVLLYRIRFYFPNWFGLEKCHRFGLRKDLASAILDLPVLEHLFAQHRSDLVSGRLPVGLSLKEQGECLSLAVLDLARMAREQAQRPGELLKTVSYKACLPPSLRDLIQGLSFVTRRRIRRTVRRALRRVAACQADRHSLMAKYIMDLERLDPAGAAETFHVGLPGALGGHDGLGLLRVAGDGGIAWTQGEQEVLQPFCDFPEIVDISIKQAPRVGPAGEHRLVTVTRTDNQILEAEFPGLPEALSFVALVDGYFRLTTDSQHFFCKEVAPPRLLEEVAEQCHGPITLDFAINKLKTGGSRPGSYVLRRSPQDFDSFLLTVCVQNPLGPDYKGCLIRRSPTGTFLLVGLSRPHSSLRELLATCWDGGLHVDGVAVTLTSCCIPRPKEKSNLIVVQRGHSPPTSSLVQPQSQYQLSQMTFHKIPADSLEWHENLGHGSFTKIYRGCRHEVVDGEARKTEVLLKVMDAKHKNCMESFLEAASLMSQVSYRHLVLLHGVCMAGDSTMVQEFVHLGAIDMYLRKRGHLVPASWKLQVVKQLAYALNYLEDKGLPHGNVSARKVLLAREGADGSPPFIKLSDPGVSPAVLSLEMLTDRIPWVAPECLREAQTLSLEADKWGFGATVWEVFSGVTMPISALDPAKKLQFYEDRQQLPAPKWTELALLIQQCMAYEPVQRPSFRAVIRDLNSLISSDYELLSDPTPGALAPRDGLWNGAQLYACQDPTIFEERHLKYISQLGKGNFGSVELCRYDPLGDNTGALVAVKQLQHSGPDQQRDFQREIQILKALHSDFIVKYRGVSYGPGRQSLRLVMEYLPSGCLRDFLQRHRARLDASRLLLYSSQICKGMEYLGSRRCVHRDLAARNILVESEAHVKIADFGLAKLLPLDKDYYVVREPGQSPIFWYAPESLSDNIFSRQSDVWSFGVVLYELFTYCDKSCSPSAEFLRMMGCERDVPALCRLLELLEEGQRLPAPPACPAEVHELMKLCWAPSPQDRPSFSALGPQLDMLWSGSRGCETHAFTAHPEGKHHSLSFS
Nature of the experiment: Detection of enzyme activity inhibition of JAK kinases (ULight-JAK substrate, Eu-antibody), JAK3. To be noted: ATP 10 μM, substrate 50 nM, 1 hour reaction at room temperature; read-out: JAK3 half-maximum inhibitory concentration (IC50). The method, then: as §1

The target in a further experiment is JAK1 (Homo sapiens, UniProt P23458). Nature of the experiment: Detection of enzyme activity inhibition of JAK kinases (ULight-JAK substrate, Eu-antibody), JAK1. The following applies: JAK1 20 nM, ATP 40 μM, substrate 50 nM, 2 hours reaction at room temperature, read-out: JAK1 half-maximum inhibitory concentration (IC50). The method, then: as §1
Sequence of JAK1 (P23458 whole entry): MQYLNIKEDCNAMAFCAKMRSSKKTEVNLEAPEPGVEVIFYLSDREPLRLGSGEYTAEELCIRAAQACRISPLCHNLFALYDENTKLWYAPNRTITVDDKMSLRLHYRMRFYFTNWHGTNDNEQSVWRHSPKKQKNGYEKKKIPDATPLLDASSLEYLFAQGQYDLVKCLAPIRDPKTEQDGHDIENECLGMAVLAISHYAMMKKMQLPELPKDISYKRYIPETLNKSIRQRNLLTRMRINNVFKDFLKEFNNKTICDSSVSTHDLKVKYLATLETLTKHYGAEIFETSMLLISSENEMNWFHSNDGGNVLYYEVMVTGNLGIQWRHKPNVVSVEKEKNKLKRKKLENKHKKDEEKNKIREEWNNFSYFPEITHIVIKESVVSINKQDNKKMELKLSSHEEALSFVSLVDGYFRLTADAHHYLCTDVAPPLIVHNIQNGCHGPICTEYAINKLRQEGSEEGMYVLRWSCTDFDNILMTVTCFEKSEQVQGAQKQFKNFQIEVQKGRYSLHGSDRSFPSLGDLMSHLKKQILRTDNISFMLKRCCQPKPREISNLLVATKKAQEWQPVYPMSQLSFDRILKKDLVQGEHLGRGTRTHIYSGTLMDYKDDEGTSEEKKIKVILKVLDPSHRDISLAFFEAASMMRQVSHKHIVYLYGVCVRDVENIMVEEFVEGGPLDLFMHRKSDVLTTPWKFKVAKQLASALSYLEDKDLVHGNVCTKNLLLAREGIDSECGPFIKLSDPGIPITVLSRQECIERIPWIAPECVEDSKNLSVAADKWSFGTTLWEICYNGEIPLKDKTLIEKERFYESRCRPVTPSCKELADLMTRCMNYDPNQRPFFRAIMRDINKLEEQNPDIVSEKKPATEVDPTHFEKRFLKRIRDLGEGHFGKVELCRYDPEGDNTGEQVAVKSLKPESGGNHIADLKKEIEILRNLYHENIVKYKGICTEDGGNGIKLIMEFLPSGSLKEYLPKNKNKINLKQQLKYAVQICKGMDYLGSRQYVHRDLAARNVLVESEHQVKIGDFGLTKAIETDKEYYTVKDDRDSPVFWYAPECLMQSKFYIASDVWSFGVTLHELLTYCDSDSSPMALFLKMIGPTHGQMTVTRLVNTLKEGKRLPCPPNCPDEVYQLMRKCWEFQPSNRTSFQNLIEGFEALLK

Read-outs that look alike come from different tables or passages of the source.

Consider `CCNC(=O)c1ccc(Nc2nccc(-c3ccn(C4(CC#N)CN(C(=O)[C@@H]5CC5(F)F)C4)c3)n2)cc1` [TDM-180973, (S)-4-((4-(1-(3-(cyanomethyl)-1-(2,2-difluorocyclopropane-1-carbonyl)azetidin-3-yl)-1H-pyrrol-3-yl)pyrimidin-2-yl)amino)-N-ethylbenzamide], for which the IC50 on Tyk2 was 7 nM; on JAK2, 9 nM; on JAK3, 443 nM.

On to `Cc1cc(Nc2nccc(-c3ccn(C4(CC#N)CN(C(=O)[C@@H]5CC5(F)F)C4)c3)n2)cnc1C(N)=O` [TDM-180975, (S)-5-((4-(1-(3-(cyanomethyl)-1-(2,2-difluorocyclopropane-1-carbonyl)azetidin-3-yl)-1H-pyrrol-3-yl)pyrimidin-2-yl)amino)-3-methylpyridinolineamide], for which the IC50 on Tyk2 was 8 nM; at JAK2 it was 7 nM; on JAK3, 674 nM; at JAK1, 12 nM.

As to `CNC(=O)c1ncc(Nc2nccc(-c3ccn(C4(CC#N)CN(C(=O)[C@@H]5CC5(F)F)C4)c3)n2)cc1C` [TDM-180976, (S)-5-((4-(1-(3-(cyanomethyl)-1-(2,2-difluorocyclopropane-1-carbonyl)azetidin-3-yl)-1H-pyrrol-3-yl)pyrimidin-2-yl)amino)-N,3-dimethylpyridinecarboxamide], the IC50 at Tyk2 is 9 nM; on JAK2, 13 nM; on JAK3, 599 nM; on JAK1, 9 nM.

Consider `CCNC(=O)c1ccc(Nc2nccc(-c3cnn(C4(CC#N)CN(C(=O)[C@@H]5CC5(F)F)C4)c3)n2)cc1` [TDM-180982, (S)-4-((4-(1-(3-(cyanomethyl)-1-(2,2-difluorocyclopropane-1-carbony)azetidn-3-yl)-1H-pyrazol-4-yl)pyrimidin-2-yl)amino)-N-ethylbenzamide], for which the IC50 on Tyk2 worked out at 19 nM; on JAK2, 22 nM; at JAK3, 1300 nM; at JAK1 it was 18 nM.

As to `CCNC(=O)c1ccc(Nc2nccc(-c3cnn(C4(CC#N)CN(C(=O)[C@@H]5CC5(F)F)C4)c3)n2)cc1C` [TDM-180983], the IC50 is 17 nM on Tyk2, 27 nM at JAK2, 791 nM at JAK3 and 45 nM at JAK1.

As for `CNC(=O)c1ncc(Nc2nccc(-c3cnn(C4(CC#N)CN(C(=O)[C@@H]5CC5(F)F)C4)c3)n2)cc1C` [TDM-180985, (S)-5-((4-(1-(3-(cyanomethyl)-1-(2,2-difluorocyclopropane-1-carbonyl)azetidin-3-yl)-1H-pyrazol-4-yl)pyrimidin-2-yl)amino)-N,3-dimethylpyridinecarboxamide], the IC50 on Tyk2 came out at 21 nM; on JAK2 it was 64 nM; at JAK3, 2370 nM; on JAK1, 54 nM.

On to `Cc1cc(Nc2nccc(-c3cnn(C4(CC#N)CN(C(=O)[C@@H]5CC5(F)F)C4)c3)n2)cnc1C(N)=O` [TDM-180986, (S)-5-((4-(1-(3-(cyanomethyl)-1-(2,2-difluorocyclopropane-1-carbonyl)azetidin-3-yl)-1H-pyrazol-4-yl)pyrimidin2-yl)amino)-3-methylpyridinolineamide], for which the IC50 on Tyk2 came to 56 nM; on JAK2 it was 52 nM; at JAK3, 3060 nM; at JAK1, 125 nM.

Turning to `CC(CO)c1ccc(Nc2nccc(-c3cnn(C4(CC#N)CN(C(=O)[C@@H]5CC5(F)F)C4)c3)n2)cn1` (stereo partly drawn) [TDM-180990, 2-(1-((S)-2,2-difluorocyclopropane-1-carbonyl)-3-(4-(2-((6-(1-hydroxypropan-2-yl)pyridine-3-yl)amino)pyrimidin-4-yl)-1H-pyrazol-1-yl)azetidin-3-yl)acetonitrile], the values for the IC50 on Tyk2 and at JAK1 were 112 nM and 224 nM, respectively.

With `CC(CO)c1ccc(Nc2nccc(-c3ccn(C4(CC#N)CN(C(=O)[C@@H]5CC5(F)F)C4)c3)n2)cn1` (stereo partly drawn) [TDM-180996, 2-(1-((S)-2,2-difluorocyclopropane-1-carbonyl)-3-(3-(2-((6-(1-hydroxypropan-2-yl)pyridine-3-yl)amino)pyrimidin-4-yl)-1H-pyrrol-1-yl)azetidin-3-yl) acetonitrile], the IC50 came to 39 nM at Tyk2, 38 nM at JAK2, 843 nM on JAK3 and 55 nM on JAK1.

For “(S)-4-((4-(1-(3-(cyanomethyl)-1-(2,2-difluorocyclopropane-1-carbonyl)azetidin-3-yl)-1H-pyrrol-3-yi)pyrimidin-2-yl)amino)-N-ethyl-2-methylbenzamide [TDM-180978]”, the IC50 on Tyk2 (listed as TDM-18097) was around 10 nM; at Tyk2, 11 nM; on JAK2 (listed as TDM-18097) it was around 10 nM; at JAK2, 12 nM; at JAK3, 280 nM; at JAK1 (listed as TDM-18097), around 10 nM. The IC50 on JAK1 was 7 nM.
